Assay results taken from patent US9359338B2, “Cyclopropanecarboxamido-substitute aromatic compounds as anti-tumor agents” (Crown Bioscience Inc. (Taiwan), priority 2012, dated 2016).
Like-named read-outs stand apart in the source and are kept apart here.

Key:
B-Raf kinase = B-Raf kinase (Homo sapiens (Human), UniProt P15056); test: Inhibitory activity at B-Raf kinase (ADP-GLO assay); format: biochemical
Protocol: Inhibitory Activity of Compounds at B-Raf Kinase
• [Experimental method]: Use ADP-GLO™ assay kit from Promega to evaluate the inhibitory activity of compounds at B-Raf • [Instrument]: PerKinElmer's ENVISION plate reader • [Material]: Optiplate-384 well plate (PerKinElmer), kinase buffer (50 mM Hepes pH7.5, 1 mM EGTA, 2 mM DTT, 10 mM Mg^2+, 0.05% BSA), B-Raf kinase (Millipore, catalogue #14-530-K), GST-MEK1 substrate (Carna, catalogue #07-141-10), Super pure ATP (Promega), ADP-GLO™ assay kit (Promega, catalogue # V9102), DMSO (Sigma, catalogue #34869), purified water (Millipore, type: Milli-Q). • [Study conditions]: Mix B-Raf kinase (final concentration: 5 nM) and compound (DMSO final concentration: 0.25%) and preincubate at 30° C. for 20 min, then add ATP (final concentration: 6 μM) and reaction substrate (final concentration: 30 nM), React for 2 hrs at 30° C. After reaction, add ADP-GLO™ reagent, react for 40 min at room temperature, then add ADP-GLO™ detecting agent, react for 30 min at room temperature. After that, use ENVSION to measure the […]. • [Samples]: Compounds in the examples and Sorafenib (positive control) • [Data analysis]: Use CBIS data analysis software to calculate IC50 values

pERK in MDA-MB-231 cells = test: Inhibitory activity at pERK (In Cell Western, MDA-MB-231 cells); format: cell-based; conditions: Homo sapiens
Summary of the method: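 pERK was measured by in-cell immunofluorescence (PI nuclear counterstain, Acumen read-out) in fixed MDA-MB-231 cells. Compound exposure lasted 2 h in DMEM with 0.1% BSA, using eight 3-fold dilutions starting at 30 μM final and 0.3% DMSO. IC50 values were derived from the resulting curves.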

PLC-PRF-5 cells = test: Inhibition of proliferation of PLC-PRF-5 cells (ATPlite); format: cell-based; conditions: Homo sapiens
Summary of the method: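 Antiproliferative IC50 from luminescent ATP detection (ATPlite) after 96 h compound exposure at 37 °C. Cells grown in DMEM plus 10% FBS and allowed 2 h to settle, then dosed with eight 3-fold dilutions topping at 30 μM final, DMSO 0.3%.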

KDR kinase (790-1356 AA) = KDR kinase (790-1356 AA) (Homo sapiens (Human), UniProt P35968); test: Inhibitory activity at KDR kinase (Lance Ultra Ulight-TK assay); format: biochemical
Summary of the method: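 Kinase (20 nM final) and compound were premixed 20 min at 30 °C, then phosphorylation ran 2 h at 30 °C with ATP at 90 μM and Ulight-TK substrate at 50 μM, pH 7.5, Mg2+ and Mn2+ present.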

[1] = MDA-MB-231, MDA-MB-231 cells, read-out: MDA-MB-231 pERK IC50
[2] = PLC-PRF-5, PLC-PRF-5 cells, read-out: PLC-PRF-5 cell proliferation IC50
[3] = MDA-MB-231, read-out: MDA-MB-231 pERK IC50
[4] = PLC-PRF-5, read-out: PLC-PRF-5 cell proliferation IC50

Chain of B-Raf kinase (P15056 416-766): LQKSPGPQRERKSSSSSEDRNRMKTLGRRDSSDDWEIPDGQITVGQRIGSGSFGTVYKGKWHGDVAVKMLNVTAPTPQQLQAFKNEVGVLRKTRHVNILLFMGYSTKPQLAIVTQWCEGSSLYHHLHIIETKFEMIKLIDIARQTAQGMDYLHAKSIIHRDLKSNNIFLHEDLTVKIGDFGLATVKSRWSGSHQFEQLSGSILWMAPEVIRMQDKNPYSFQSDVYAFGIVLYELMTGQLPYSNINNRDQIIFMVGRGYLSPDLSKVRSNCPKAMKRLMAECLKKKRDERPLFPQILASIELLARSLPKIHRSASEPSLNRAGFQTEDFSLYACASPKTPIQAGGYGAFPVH
Chain of KDR kinase (790-1356 AA) (P35968 790-1356): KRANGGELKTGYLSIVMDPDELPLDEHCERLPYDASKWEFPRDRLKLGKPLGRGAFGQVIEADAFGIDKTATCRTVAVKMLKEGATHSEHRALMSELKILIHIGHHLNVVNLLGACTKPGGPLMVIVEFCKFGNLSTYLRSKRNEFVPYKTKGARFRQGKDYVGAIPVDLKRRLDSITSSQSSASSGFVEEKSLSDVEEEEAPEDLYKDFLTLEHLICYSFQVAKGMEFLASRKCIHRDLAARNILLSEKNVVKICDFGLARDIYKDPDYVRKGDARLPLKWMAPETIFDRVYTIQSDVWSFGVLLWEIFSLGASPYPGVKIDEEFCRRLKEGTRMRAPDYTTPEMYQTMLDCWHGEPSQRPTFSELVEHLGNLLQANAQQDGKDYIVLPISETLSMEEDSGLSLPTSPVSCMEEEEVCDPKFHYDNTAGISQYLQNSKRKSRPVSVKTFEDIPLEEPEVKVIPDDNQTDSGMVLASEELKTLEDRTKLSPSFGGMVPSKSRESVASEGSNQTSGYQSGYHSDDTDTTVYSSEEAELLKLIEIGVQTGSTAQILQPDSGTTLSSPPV

Row | Structure (SMILES) | IC50 (B-Raf kinase) | IC50 (pERK in MDA-MB-231 cells; [1]) | IC50 (PLC-PRF-5 cells; [2]) | IC50 (KDR kinase (790-1356 AA)) | IC50 (pERK in MDA-MB-231 cells; [3]) | IC50 (PLC-PRF-5 cells; [4])
1 | CS(=O)(=O)c1cc(NC(=O)Nc2ccc(Oc3ccnc(NC(=O)C4CC4)c3)c(F)c2)cc(C(F)(F)F)c1 [Exe. 037] | 0.026 µM | 0.0339 µM | 0.768 µM | 0.0135 µM | – | –
2 | CN1CCC(Oc2cc(NC(=O)Nc3ccc(Oc4ccnc(NC(=O)C5CC5)c4)c(F)c3)cc(C(F)(F)F)c2)C1 (stereo not shown) [Exe. 038] | 0.0053 µM | 0.0235 µM | 0.13 µM | 0.0082 µM | – | –
3 | CC1CN(c2cc(NC(=O)Nc3ccc(Oc4ccnc(NC(=O)C5CC5)c4)c(F)c3)cc(C(F)(F)F)c2)C(=O)O1 (stereo not shown) [Exe. 041] | 0.0375 µM | 0.0181 µM | 0.358 µM | 0.0042 µM | – | –
4 | CC(=O)Nc1cc(NC(=O)Nc2ccc(Oc3ccnc(NC(=O)C4CC4)c3)c(F)c2)cc(C(F)(F)F)c1 [Exe. 044] | 0.013 µM | 0.0298 µM | 0.752 µM | 0.0142 µM | – | –
5 | CC1CN(c2cc(NC(=O)Nc3ccc(Oc4ccnc(NC(=O)C5CC5)c4)c(F)c3)cc(C(F)(F)F)c2)CC(C)O1 (stereo not shown) [Exe. 047] | 0.0736 µM | 0.0533 µM | 0.682 µM | 0.0062 µM | – | –
6 | CN(C)C1CCN(c2cc(NC(=O)Nc3ccc(Oc4ccnc(NC(=O)C5CC5)c4)c(F)c3)cc(C(F)(F)F)c2)C1 (stereo not shown) [Exe. 048] | 0.011 µM | 0.025 µM | 0.233 µM | 0.0073 µM | – | –
7 | O=C(Nc1cc(N2CCC(O)CC2)cc(C(F)(F)F)c1)Nc1ccc(Oc2ccnc(NC(=O)C3CC3)c2)c(F)c1 [Exe. 051] | 0.0236 µM | 0.0339 µM | 0.749 µM | 0.0052 µM | – | –
8 | O=C(Nc1cc(N2CCCC2=O)cc(C(F)(F)F)c1)Nc1ccc(Oc2ccnc(NC(=O)C3CC3)c2)c(F)c1 [Exe. 052] | 0.013 µM | 0.022 µM | 0.36 µM | 0.0155 µM | – | –
9 | CC(F)(F)c1cncc(NC(=O)Nc2ccc(Oc3ccnc(NC(=O)C4CC4)c3)c(F)c2)c1 [Exe. 056] | 0.065 µM | 0.0397 µM | 0.11 µM | 0.0175 µM | – | –
10 | O=C(Nc1ccc(Oc2ccnc(NC(=O)C3CC3)c2)c(F)c1)Nc1cc(C2CC2)ccc1F [Exe. 058] | 0.116 µM | 0.03 µM | 0.043 µM | 0.0137 µM | – | –
11 | O=C(Nc1ccc(Oc2ccnc(NC(=O)C3CC3)c2)c(F)c1)Nc1ccc2[nH]cc(F)c2c1 [Exe. 059] | 0.09 µM | 0.0194 µM | 0.643 µM | 0.0082 µM | – | –
12 | O=C(Nc1cccc(C(F)(F)F)c1)Nc1ccc(Oc2ccnc(NC(=O)C3CC3)c2)c(F)c1 [Exe. 061] | 0.0063 µM | 0.0263 µM | 0.211 µM | 0.00373 µM | – | –
13 | N#Cc1ccc(NC(=O)Nc2ccc(Oc3ccnc(NC(=O)C4CC4)c3)c(F)c2)cc1C(F)(F)F [Exe. 062] | 0.007 µM | – | – | 0.00718 µM | 0.0294 µM | 3.05 µM
14 | O=C(Nc1ccc(Oc2ccnc(NC(=O)C3CC3)c2)c(F)c1)Nc1ccc(Cl)c(OC(F)(F)F)c1 [Exe. 063] | 0.0149 µM | 0.0291 µM | 2.33 µM | 0.0055 µM | – | –
15 | CC(F)(F)c1cncc(NC(=O)Nc2ccc(Oc3ccnc(NC(=O)C4CC4)c3)cc2)c1 [Exe. 065] | 0.025 µM | 0.0465 µM | 0.162 µM | 0.0065 µM | – | –
16 | Cc1cc(Oc2cc(NC(=O)C3CC3)ncn2)ccc1NC(=O)Nc1ccc(F)c(C(F)(F)F)c1 [Exe. 070, N-[6-[4-[[4-fluoro-3-(trifluoromethyl)phenyl]carbamoylamino]-3-methyl-phenoxy]pyrimidin-4-yl]cyclopropanecarboxamide] | 0.145 µM | 0.0635 µM | 9.3 µM | 0.011 µM | – | –
17 | Cc1cc(Oc2cc(NC(=O)C3CC3)ncn2)ccc1NC(=O)Nc1cccc(C(F)(F)F)c1 [Exe. 074] | 0.146 µM | 0.0775 µM | 6.07 µM | 0.0105 µM | – | –

Row | Structure (SMILES) | IC50 (B-Raf kinase) | IC50 (pERK in MDA-MB-231 cells; [1]) | IC50 (PLC-PRF-5 cells; [2]) | IC50 (KDR kinase (790-1356 AA)) | IC50 (pERK in MDA-MB-231 cells; [3]) | IC50 (PLC-PRF-5 cells; [4])
18 | Cc1cc(Oc2cc(NC(=O)C3CC3)ncn2)ccc1NC(=O)Nc1ccc(Cl)c(C(C)(F)F)c1 [Exe. 085] | 0.045 µM | 0.0193 µM | 11 µM | 0.0107 µM | – | –
19 | CC(F)(F)c1cc(NC(=O)Nc2ccc(Oc3cc(NC(=O)C4CC4)ncn3)c(F)c2)ccc1Cl [Exe. 105] | 0.153 µM | 0.0855 µM | 1.9 µM | 0.0113 µM | – | –
20 | O=C(Nc1ccc(Oc2cc(NC(=O)C3CC3)ncn2)cc1F)Nc1cc(C(F)(F)F)ccc1F [Exe. 107] | 0.031 µM | 0.0202 µM | 0.324 µM | 0.0134 µM | – | –
21 | O=C(Nc1cccc(C(F)(F)F)c1)Nc1ccc(Oc2cc(NC(=O)C3CC3)ncn2)cc1F [Exe. 108] | 0.041 µM | 0.02 µM | 1.61 µM | 0.0086 µM | – | –
22 | CC(F)(F)c1ccc(F)c(NC(=O)Nc2ccc(Oc3cc(NC(=O)C4CC4)ncn3)cc2F)c1 [Exe. 109] | 0.032 µM | 0.0098 µM | 0.274 µM | 0.0109 µM | – | –
23 | CC(F)(F)c1cc(NC(=O)Nc2ccc(Oc3cc(NC(=O)C4CC4)ncn3)cc2F)ccc1Cl [Exe. 110] | 0.024 µM | 0.0134 µM | 1.58 µM | 0.0073 µM | – | –
24 | Cc1cc(NC(=O)Nc2cc(C(C)(F)F)ccc2F)ccc1Oc1cc(NC(=O)C2CC2)ncn1 [Exe. 116] | 0.111 µM | 0.0304 µM | 0.125 µM | 0.0079 µM | – | –
25 | Cc1cc(NC(=O)Nc2ccc(F)c(C(C)(F)F)c2)ccc1Oc1cc(NC(=O)C2CC2)ncn1 [Exe. 118] | 0.293 µM | 0.0553 µM | 0.706 µM | 0.0074 µM | – | –
26 | Cc1cc(NC(=O)Nc2cc(C(F)(F)F)ccc2F)cnc1Oc1ccnc(NC(=O)C2CC2)c1 [Exe. 124] | 0.0104 µM | 0.0194 µM | 0.16 µM | 0.0138 µM | – | –
27 | COc1ccc(NC(=O)Nc2cnc(Oc3ccnc(NC(=O)C4CC4)c3)c(C)c2)cc1C(F)(F)F [Exe. 125] | 0.0086 µM | 0.0047 µM | 1.72 µM | 0.0087 µM | – | –
28 | Cc1cc(NC(=O)Nc2cc(OC(C)C)cc(C(F)(F)F)c2)cnc1Oc1ccnc(NC(=O)C2CC2)c1 [Exe. 126] | 0.0614 µM | 0.0243 µM | 2.44 µM | 0.0302 µM | – | –
29 | Cc1cc(Oc2ccnc(NC(=O)C3CC3)c2)ncc1NC(=O)Nc1cc(C(F)(F)F)ccc1F [Exe. 127] | 0.0072 µM | 0.0116 µM | 0.642 µM | 0.0118 µM | – | –
30 | Cc1cc(Oc2ccnc(NC(=O)C3CC3)c2)ncc1NC(=O)Nc1cc(C(C)(F)F)ccc1F [Exe. 128] | 0.0062 µM | 0.038 µM | 0.819 µM | 0.0098 µM | – | –
31 | CS(=O)(=O)c1cc(NC(=O)Nc2ccc(Oc3ccnc(NC(=O)C4CC4)c3)nc2)cc(C(F)(F)F)c1 [Exe. 130] | 0.0297 µM | 0.725 µM | 4.99 µM | 0.0046 µM | – | –
32 | CN1CCC(Nc2cc(NC(=O)Nc3ccc(Oc4ccnc(NC(=O)C5CC5)c4)nc3)cc(C(F)(F)F)c2)CC1 [Exe. 131] | 0.0125 µM | > 1 µM | 10.5 µM | 0.0061 µM | – | –
33 | O=C(Nc1ccc(Oc2ccnc(NC(=O)C3CC3)c2)nc1)Nc1cc(N2CCS(=O)(=O)CC2)cc(C(F)(F)F)c1 [Exe. 132] | 0.039 µM | 0.341 µM | 5.91 µM | 0.01 µM | – | –
34 | N#Cc1ccc(NC(=O)Nc2ccc(Oc3ccnc(NC(=O)C4CC4)c3)cn2)cc1C(F)(F)F [Exe. 133] | 0.025 µM | – | – | 0.0091 µM | 0.0236 µM | 1.02 µM
